Laboratory results as given in patent US9815794B2, “Inhibition of bacterial biofilms and microbial growth with imidazole derivatives” (North Carolina State University, priority 2011, dated 2017).
Converted amounts (≈) assume the structure as drawn.

Columns and labels:
[1] = tested on: E. coli; experiment: Broth microdilution MIC; type: cell-based; conditions: Escherichia coli
Experimental: (§1) Once it was determined that this specific 4,5-disubstitution pattern imparted microbicidal activity onto the 2-AI framework, this activity was quantified by measuring the MIC of each derivative against a variety of representative pathogenic bacterial strains using the microdilution protocol (CSLI, Performance Standards for Antimicrobial Suceptibility Testing; Nineteenth Informational Supplement, Clinical and Laboratory Standards Institute, Wayne, Pa., 2009). E. coli, MDRAB, P. aeruginosa, MRSA, MSSA, S. epidermidis and VRE were used for initial evaluation. From this screen, compound 15 was determined to be the lead compound and had MIC values (μg/mL) of 2, 2, 1, 0.5, 0.25, and 1 against E. coli, MDRAB, MRSA, VRE, S. Epidermidis and MSSA.
(§2) S. aureus (ATCC #29213), S. epidermidis (ATCC #29886), MRSA (ATCC # BAA-44), MDRAB (ATCC # BAA-1605), vancomycin resistant Enterococcus faecium (VRE) (ATCC #51559) and E. coli (ATCC #35695) were obtained from the ATCC. Mechanically difibrinated sheep blood (DSB100) was obtained from Hemostat Labs. Mueller-Hinton medium was purchased from Fluka (#70192).
(§3) Broth Microdilution Method for MIC Determination.

[2] = tested on: MDRAB; experiment: Broth microdilution MIC; type: cell-based
Experimental: as §1, §2, §3

[3] = tested on: S. epidermidis; experiment: Broth microdilution MIC; type: cell-based; conditions: Staphylococcus epidermidis, read-out: MIC
Experimental: as §1, §2, §3

[4] = tested on: MRSA; experiment: Broth microdilution MIC; type: cell-based, methicillin-resistant S. aureus; conditions: Staphylococcus aureus
Experimental: as §1, §2, §3

[5] = tested on: MSSA; experiment: Broth microdilution MIC; type: cell-based, S. aureus; conditions: Staphylococcus aureus
Experimental: as §1, §2, §3

[6] = tested on: Vibrio cholerae; experiment: Marine bacteria microdilution MIC; type: cell-based; conditions: V. cholerae
[7] = tested on: MRSA; experiment: Dispersion of pre-formed biofilms; type: cell-based, methicillin-resistant S. aureus; conditions: Staphylococcus aureus, read-out: EC50, 50% dispersion of a pre-formed biofilm
Experimental: (§4) The ability of 15 and 19 to disperse pre-formed biofilms was also determined for all of the aforementioned bacterial strains (both marine and terrestrial). To quantify this effect, the EC50 value of each compound against each bacterial strain was determined, where EC50 is defined as the concentration of compound that elicits 50% dispersion of a pre-formed biofilm. Both compounds are able to disperse pre-formed biofilms at low micromolar concentrations. These concentrations are also microbicidal to planktonic bacteria. […]
(§5) Preformed Biofilms: Dispersion assays were performed by taking an overnight culture of bacterial strain and subculturing it at an OD600 of 0.01 into the necessary medium (brain heart infusion for E. faecium, tryptic soy broth with a 0.5% glucose supplement (TSBG) for MRSA, S. aureus and S. epidermidis, Luria-Bertani (LB) medium for MDRAB and E. coli, and tryptic soy broth with a 0.5% glucose supplement and a 3.0% NaCl supplement (TGN) for R. salexigens, V. cholerae, V. vulnificus and L. anguillarum.) The resulting bacterial suspension was aliquoted (100 μL) into the wells of a 96-well PVC microtiter plate. […] Biofilm dispersion was quantitated by measuring the OD540 of each well in which a negative control lane wherein no biofilm was formed served as a background and was subtracted out.

[8] = tested on: MSSA; experiment: Dispersion of pre-formed biofilms; type: cell-based, S. aureus; conditions: Staphylococcus aureus, read-out: EC50, 50% dispersion of a pre-formed biofilm
Experimental: as §4, §5

[9] = tested on: E. coli; experiment: Dispersion of pre-formed biofilms; type: cell-based; conditions: Escherichia coli, read-out: EC50, 50% dispersion of a pre-formed biofilm
Experimental: (§6) The ability of 15 and 19 to disperse pre-formed biofilms was also determined for all of the aforementioned bacterial strains (both marine and terrestrial). To quantify this effect, the EC50 value of each compound against each bacterial strain was determined, where EC50 is defined as the concentration of compound that elicits 50% dispersion of a pre-formed biofilm. Both compounds are able to disperse pre-formed biofilms at low micromolar concentrations. These concentrations are also microbicidal to planktonic bacteria.
(§7) Procedure to Determine the Dispersal Effect of Test Compounds on E. faecium (VRE), MRSA, S. aureus, S. epidermidis, E. coli, R. salexigens, V. cholerae, V. vulnificus and L. anguillarum
(§8) Preformed Biofilms: Dispersion assays were performed by taking an overnight culture of bacterial strain and subculturing it at an OD600 of 0.01 into the necessary medium (brain heart infusion for E. faecium, tryptic soy broth with a 0.5% glucose supplement (TSBG) for MRSA, S. aureus and S. epidermidis, Luria-Bertani (LB) medium for MDRAB and E. coli, and tryptic soy broth with a 0.5% glucose supplement and a 3.0% NaCl supplement (TGN) for R. salexigens, V. cholerae, V. vulnificus and L. anguillarum.) The resulting bacterial suspension was aliquoted (100 μL) into the wells of a 96-well PVC microtiter plate. Plates were then wrapped in GLAD Press n' Seal® followed by an incubation under stationary conditions at 37° C. to establish the biofilms. After 24 h, the medium was discarded from the wells and the plates were washed thoroughly with water. Stock solutions of predetermined concentrations of the test compound were then made in the necessary medium. These stock solutions were aliquoted (100 μL) into the wells of the 96-well PVC microtiter plate with the established biofilms. Medium alone was added to a subset of the wells to serve as a control. Sample plates were then incubated for 24 h at 37° C. After incubation, the medium was discarded from the wells and the plates were washed thoroughly with water. Plates were then stained with 100 μL of 0.1% solution of crystal violet (CV) and then incubated at ambient temperature for 30 min. Plates were washed with water again and the remaining stain was solubilized with 200 μL of 95% ethanol. A sample of 125 μL of solubilized CV stain from each well was transferred to the corresponding wells of a polystyrene microtiter dish. Biofilm dispersion was quantitated by measuring the OD540 of each well in which a negative control lane wherein no biofilm was formed served as a background and was subtracted out.

[10] = tested on: MDRAB; experiment: Dispersion of pre-formed biofilms; type: cell-based; conditions: read-out: EC50, 50% dispersion of a pre-formed biofilm
Experimental: as §6, §7, §8

[11] = tested on: S. epidermidis; experiment: Dispersion of pre-formed biofilms; type: cell-based; conditions: Staphylococcus epidermidis, read-out: EC50, 50% dispersion of a pre-formed biofilm
Experimental: as §6, §7, §8

[12] = tested on: V. cholerae; experiment: Dispersion of pre-formed biofilms; type: cell-based; conditions: Vibrio cholerae, read-out: EC50, 50% dispersion of a pre-formed biofilm
Experimental: as §6, §7, §8

[13] = tested on: V. vulnificus; experiment: Dispersion of pre-formed biofilms; type: cell-based; conditions: Vibrio vulnificus, read-out: EC50, 50% dispersion of a pre-formed biofilm
Experimental: as §6, §7, §8

[14] = tested on: R. salexigens; experiment: Dispersion of pre-formed biofilms; type: cell-based, Rhodospirillum salexigens; conditions: Rhodothalassium salexigens, read-out: EC50, 50% dispersion of a pre-formed biofilm
Experimental: as §4, §5

[15] = tested on: Vibrio vulnificus; experiment: Marine bacteria microdilution MIC; conditions: V. vulnificus
[16] = tested on: Listonella anguillarum; experiment: Marine bacteria microdilution MIC; conditions: L. anguillarum

| Compound | MIC [1] [µg/mL] | MIC [2] [µg/mL] | MIC [3] [µg/mL] | MIC [4] [µg/mL] | MIC [5] [µg/mL] | MIC [6] [µg/mL] | MIC ([6]; Vibrio cholerae) [µg/mL] | EC50 [7] [µM] | EC50 [8] [µM] | EC50 [9] [µM] | EC50 [10] [µM] | EC50 [11] [µM] | EC50 [12] [µM] | EC50 [13] [µM] | EC50 [14] [µM] | MIC [15] [µg/mL] | MIC ([15]; Vibrio vulnificus) [µg/mL] | MIC [16] [µg/mL] | MIC ([16]; Vibrio anguillarum) [µg/mL] |
| --- | --- | --- | --- | --- | --- | --- | --- | --- | --- | --- | --- | --- | --- | --- | --- | --- | --- | --- | --- |
| CCCCCc1[nH]c(N)nc1CCCCCc1ccccc1 [Compound 15, 5-pentyl-4-(5-phenylpentyl)-1H-imidazol-2-amine] | 2 (≈ 6.68 µM) | 2 (≈ 6.68 µM) | 0.25 (≈ 0.835 µM) | 1 (≈ 3.34 µM) | 1 (≈ 3.34 µM) | 4.20 (≈ 14 µM) | 4.2 (≈ 14 µM) | 33.9 ± 3.9 | 19.9 ± 3.3 | 12 ± 1.6 | 7.1 ± 1.3 | 24.7 ± 5.8 | 7.12 ± 0.3 | 18.1 ± 2.3 | 6.6 ± 1.1 | 2.10 (≈ 7.01 µM) | 2.1 (≈ 7.01 µM) | 2.10 (≈ 7.01 µM) | 2.1 (≈ 7.01 µM) |
| CCCCCCc1[nH]c(N)nc1CCCCCc1ccccc1 [Compound 19, 5-hexyl-4-(5-phenylpentyl)-1H-imidazol-2-amine] | 2 (≈ 6.38 µM) | 4 (≈ 12.8 µM) | 0.5 (≈ 1.59 µM) | 1 (≈ 3.19 µM) | 1 (≈ 3.19 µM) | 2.19 (≈ 6.99 µM) | 2.2 (≈ 7.02 µM) | 74.9 ± 9.8 | 26.1 ± 0.7 | 42.5 ± 6.1 | 11.1 ± 0.1 | 17.7 ± 0.3 | 14.7 ± 1.8 | 3.2 ± 1.3 | 17.6 ± 3.2 |  | 2.2 (≈ 7.02 µM) |  | 2.2 (≈ 7.02 µM) |
